Reference: patent US10168342B2, “Lipid probes and uses thereof” (THE SCRIPPS RESEARCH INSTITUTE, priority 2015, dated 2019)

Assays:
Assay in all cases: In situ competitive SILAC profiling with A-DA probe in (PMA-stimulated) A549 cells
Conditions in all cases: A549 cells, A-DA probe
[1] = target: T1, A-DA lipid probe targets in A549 cells (Homo sapiens, UniProt P07602)
T1 sequence (P07602 60-524): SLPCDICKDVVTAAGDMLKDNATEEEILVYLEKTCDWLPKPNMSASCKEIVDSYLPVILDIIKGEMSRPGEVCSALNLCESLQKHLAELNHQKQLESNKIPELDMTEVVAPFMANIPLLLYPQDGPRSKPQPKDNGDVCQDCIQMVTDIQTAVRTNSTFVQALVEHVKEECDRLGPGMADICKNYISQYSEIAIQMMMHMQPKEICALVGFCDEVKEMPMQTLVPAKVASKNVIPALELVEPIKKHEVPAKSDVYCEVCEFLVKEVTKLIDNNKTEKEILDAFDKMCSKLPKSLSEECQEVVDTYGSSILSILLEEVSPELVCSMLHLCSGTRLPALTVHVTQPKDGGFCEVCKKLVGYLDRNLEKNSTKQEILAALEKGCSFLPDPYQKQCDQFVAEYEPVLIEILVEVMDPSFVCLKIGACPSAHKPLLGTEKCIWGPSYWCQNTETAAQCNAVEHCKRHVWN

[2] = target: T2, A-DA lipid probe targets in A549 cells (Homo sapiens, UniProt Q15738)
T2 sequence (Q15738 1-373): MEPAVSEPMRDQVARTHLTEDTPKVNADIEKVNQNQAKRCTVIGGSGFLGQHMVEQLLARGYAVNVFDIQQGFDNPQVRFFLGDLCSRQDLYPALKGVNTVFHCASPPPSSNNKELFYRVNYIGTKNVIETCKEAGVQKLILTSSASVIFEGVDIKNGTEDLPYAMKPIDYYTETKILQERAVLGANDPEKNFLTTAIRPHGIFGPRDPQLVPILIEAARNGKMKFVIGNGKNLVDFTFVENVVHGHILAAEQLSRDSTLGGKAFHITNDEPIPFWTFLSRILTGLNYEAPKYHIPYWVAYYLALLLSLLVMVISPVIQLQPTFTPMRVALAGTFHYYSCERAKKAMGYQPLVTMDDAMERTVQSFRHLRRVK

[3] = target: T3, A-DA lipid probe targets in A549 cells (Homo sapiens, UniProt Q9BTX1)
T3 sequence (Q9BTX1 1-674): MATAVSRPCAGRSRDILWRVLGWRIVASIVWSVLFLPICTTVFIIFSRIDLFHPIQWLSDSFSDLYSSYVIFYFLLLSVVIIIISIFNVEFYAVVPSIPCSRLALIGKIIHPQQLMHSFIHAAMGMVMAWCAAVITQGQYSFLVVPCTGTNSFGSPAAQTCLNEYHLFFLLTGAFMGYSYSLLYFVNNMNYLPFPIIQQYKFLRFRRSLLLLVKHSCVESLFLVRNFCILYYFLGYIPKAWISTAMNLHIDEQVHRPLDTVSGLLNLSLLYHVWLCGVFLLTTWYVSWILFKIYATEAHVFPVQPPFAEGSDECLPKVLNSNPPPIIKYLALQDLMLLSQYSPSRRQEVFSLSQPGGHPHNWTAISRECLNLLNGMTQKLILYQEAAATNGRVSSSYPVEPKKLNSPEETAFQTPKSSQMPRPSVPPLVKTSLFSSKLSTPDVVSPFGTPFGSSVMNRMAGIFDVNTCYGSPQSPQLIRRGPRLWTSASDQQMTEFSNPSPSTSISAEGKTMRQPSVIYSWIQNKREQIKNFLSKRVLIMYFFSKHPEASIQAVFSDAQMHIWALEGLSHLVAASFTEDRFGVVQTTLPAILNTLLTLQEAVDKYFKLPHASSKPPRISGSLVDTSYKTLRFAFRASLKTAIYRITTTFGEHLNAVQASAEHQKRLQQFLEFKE

[4] = target: A-DA lipid probe targets in A549 cells (Homo sapiens, UniProt Q9Y639)
[5] = target: A-DA lipid probe targets in A549 cells (Homo sapiens, UniProt Q14534)
[6] = target: T4, A-DA lipid probe targets in A549 cells (Homo sapiens, UniProt Q8NF37)
T4 sequence (Q8NF37 1-534): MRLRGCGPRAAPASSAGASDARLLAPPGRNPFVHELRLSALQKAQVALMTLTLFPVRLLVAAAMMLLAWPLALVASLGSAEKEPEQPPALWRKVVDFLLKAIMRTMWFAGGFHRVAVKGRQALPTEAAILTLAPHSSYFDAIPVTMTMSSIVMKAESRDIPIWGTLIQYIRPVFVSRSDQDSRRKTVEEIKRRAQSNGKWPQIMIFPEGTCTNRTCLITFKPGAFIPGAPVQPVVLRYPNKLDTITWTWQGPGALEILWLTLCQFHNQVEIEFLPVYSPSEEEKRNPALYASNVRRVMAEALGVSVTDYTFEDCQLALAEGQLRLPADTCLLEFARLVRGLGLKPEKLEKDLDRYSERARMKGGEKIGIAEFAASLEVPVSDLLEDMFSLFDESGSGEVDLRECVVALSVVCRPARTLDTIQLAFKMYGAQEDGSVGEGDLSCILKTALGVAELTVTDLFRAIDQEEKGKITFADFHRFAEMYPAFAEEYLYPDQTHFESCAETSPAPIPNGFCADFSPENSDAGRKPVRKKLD

Sequence of A-DA lipid probe targets in A549 cells (Homo sapiens, UniProt Q14534) (Q14534 whole entry): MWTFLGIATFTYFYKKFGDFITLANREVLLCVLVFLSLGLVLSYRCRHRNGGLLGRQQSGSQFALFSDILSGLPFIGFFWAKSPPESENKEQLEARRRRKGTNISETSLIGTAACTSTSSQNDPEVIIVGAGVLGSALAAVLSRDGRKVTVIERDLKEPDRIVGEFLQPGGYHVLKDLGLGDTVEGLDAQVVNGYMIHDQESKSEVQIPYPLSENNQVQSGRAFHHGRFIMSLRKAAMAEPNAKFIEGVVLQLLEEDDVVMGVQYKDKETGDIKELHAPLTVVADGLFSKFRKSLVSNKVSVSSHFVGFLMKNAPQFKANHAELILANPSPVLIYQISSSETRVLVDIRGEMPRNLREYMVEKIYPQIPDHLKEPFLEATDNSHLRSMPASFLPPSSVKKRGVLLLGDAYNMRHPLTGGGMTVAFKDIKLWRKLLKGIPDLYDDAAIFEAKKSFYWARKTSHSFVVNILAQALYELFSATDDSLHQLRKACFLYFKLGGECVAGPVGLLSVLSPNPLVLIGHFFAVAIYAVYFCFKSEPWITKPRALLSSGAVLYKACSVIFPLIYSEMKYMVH
Sequence of A-DA lipid probe targets in A549 cells (Homo sapiens, UniProt Q9Y639) (Q9Y639 29-398): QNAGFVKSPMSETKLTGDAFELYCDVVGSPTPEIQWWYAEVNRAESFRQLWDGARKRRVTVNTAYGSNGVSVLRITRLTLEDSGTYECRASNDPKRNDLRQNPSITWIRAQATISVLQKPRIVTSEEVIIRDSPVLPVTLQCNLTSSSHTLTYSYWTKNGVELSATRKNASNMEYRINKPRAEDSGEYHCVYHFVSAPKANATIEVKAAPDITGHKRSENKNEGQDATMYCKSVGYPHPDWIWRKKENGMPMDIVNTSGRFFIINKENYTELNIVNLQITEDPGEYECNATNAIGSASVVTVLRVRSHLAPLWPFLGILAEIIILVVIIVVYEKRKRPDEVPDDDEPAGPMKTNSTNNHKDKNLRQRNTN

Row | SMILES | SILAC ratio, PSAP (P07602) ([1]; competitor 25 μM) | SILAC ratio, NSDHL (Q15738) ([2]; competitor 25 μM) | SILAC ratio, TMEM48 (Q8VCB1) ([3]; competitor 25 μM) | SILAC ratio, NPTN (Q9Y639) ([4]; competitor 25 μM) | SILAC ratio, SQLE (Q14534) ([5]; competitor 25 μM) | SILAC ratio, LPCAT1 (Q8NF37) ([6]; competitor 25 μM) | SILAC ratio, PSAP (P07602) ([1]; competitor 5 μM) | SILAC ratio, PSAP (P07602) ([1]; competitor 50 μM) | SILAC ratio, NSDHL (Q15738) ([2]; competitor 5 μM) | SILAC ratio, NSDHL (Q15738) ([2]; competitor 50 μM) | SILAC ratio, TMEM48 (Q8VCB1) ([3]; competitor 5 μM) | SILAC ratio, TMEM48 (Q8VCB1) ([3]; competitor 50 μM) | SILAC ratio, NPTN (Q9Y639) ([4]; competitor 5 μM) | SILAC ratio, NPTN (Q9Y639) ([4]; competitor 50 μM) | SILAC ratio, SQLE (Q14534) ([5]; competitor 5 μM) | SILAC ratio, SQLE (Q14534) ([5]; competitor 50 μM) | SILAC ratio, LPCAT1 (Q8NF37) ([6]; competitor 5 μM) | SILAC ratio, LPCAT1 (Q8NF37) ([6]; competitor 50 μM)
1 | O=C(/C=C/c1cccnc1)NCCCCC1CCN(C(=O)c2ccccc2)CC1 [FK-866, reference compound] | 1.2 | 1.4 | 1.2 | 1.4 | 1.6 | 1.4 | – | – | – | – | – | – | – | – | – | – | – | –
2 | C=CCN(C)CCCCCCOc1ccc(C(=O)c2ccc(Br)cc2)c(F)c1 [Ro488071] | – | – | – | – | – | – | 2.3 | 3.1 | 1.5 | 2.5 | 1.5 | 2.8 | 1.3 | 3.0 | 1.4 | 3.3 | 1.6 | 3.1
